Assay results from US9016829B2, “Ink composition, ink set, and image forming method” (FUJIFILM Corporation, priority 2011, dated 2015).

Assay: Solubility with respect to pure water
Assay type: physicochemical
Conditions: 25° C.

SMILES: CC(C)(O)C(=O)c1ccc(OCCO)cc1 [IRGACURE 2959]
- solubility with respect to pure water: water (25° C.): 7.6 g/l)
